Values joined by “and” are separate entries in the source; they are usually repeats but may differ in a detail not shown here. Equal values may be shown once. Toxic doses and inconclusive results are not listed. The calls were made as follows: active = survival T/C of 150% or more; inactive = T/C below 125% in these data.
Test system: P388 leukemia ip, CD2F1 mice, survival T/C
Experiment: NCI In Vivo Anticancer Drug Screen. Data for tumor model P388 Leukemia (intraperitoneal) in CD2F1 (CDF1) mice
Settings: endpoint: median survival time, higher = longer survival
Method in brief: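 Mice carrying the transplanted tumor received test compound or vehicle. Survival was recorded in each group, and the value is the treated-group measurement divided by that of the vehicle-treated control group.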

[1] = dose: 100.0 mg/kg/injection, schedule: Q04DX002 (ip), vehicle: Klucel (hydroxypropylcellulose) (HPC)
[2] = dose: 200.0 mg/kg/injection, schedule: Q04DX002 (ip), vehicle: Klucel (hydroxypropylcellulose) (HPC)
[3] = dose: 60.0 mg/kg/injection, schedule: Q01DX005 (ip), vehicle: Klucel (hydroxypropylcellulose) (HPC)
[4] = dose: 120.0 mg/kg/injection, schedule: Q01DX005 (ip), vehicle: Klucel (hydroxypropylcellulose) (HPC)
[5] = dose: 50.0 mg/kg/injection, schedule: Q01DX005 (ip), vehicle: Klucel (hydroxypropylcellulose) (HPC)
[6] = dose: 100.0 mg/kg/injection, schedule: Q01DX005 (ip), vehicle: Klucel (hydroxypropylcellulose) (HPC)
[7] = dose: 50.0 mg/kg/injection, schedule: Q01DX009 (ip), vehicle: saline
[8] = dose: 200.0 mg/kg/injection, schedule: Q01DX005 (ip), vehicle: Klucel (hydroxypropylcellulose) (HPC)
[9] = dose: 50.0 mg/kg/injection, schedule: Q04DX002 (ip), vehicle: saline with Tween-80
[10] = dose: 100.0 mg/kg/injection, schedule: Q04DX002 (ip), vehicle: saline with Tween-80
[11] = dose: 50.0 mg/kg/injection, schedule: Q01DX005 (ip), vehicle: saline with Tween-80
[12] = dose: 100.0 mg/kg/injection, schedule: Q01DX005 (ip), vehicle: saline with Tween-80
[13] = dose: 200.0 mg/kg/injection, schedule: Q01DX005 (ip), vehicle: saline with Tween-80
[14] = dose: 50.0 mg/kg/injection, schedule: Q01DX009 (ip), vehicle: saline with Tween-80
[15] = dose: 100.0 mg/kg/injection, schedule: Q01DX009 (ip), vehicle: saline with Tween-80
[16] = dose: 50.0 mg/kg/injection, schedule: Q01DX009 (ip), vehicle: Klucel (hydroxypropylcellulose) (HPC)
[17] = dose: 100.0 mg/kg/injection, schedule: Q01DX009 (ip), vehicle: Klucel (hydroxypropylcellulose) (HPC)
[18] = dose: 200.0 mg/kg/injection, schedule: Q01DX009 (ip), vehicle: Klucel (hydroxypropylcellulose) (HPC)
[19] = dose: 400.0 mg/kg/injection, schedule: Q04DX002 (ip), vehicle: Klucel (hydroxypropylcellulose) (HPC)

Measured: T/C

O=C(O)C1(Cc2ccc(O)cc2)NCCS1 (stereo not given)
inactive: [1] 104 % of control | [2] 104 % of control

OC1CCCC1NC1CCCCC1 (stereo not given)
inactive: dose: 15.0 mg/kg/injection, schedule: Q01DX005 (ip), vehicle: Klucel (hydroxypropylcellulose) (HPC) 102 % of control | dose: 30.0 mg/kg/injection, schedule: Q01DX005 (ip), vehicle: Klucel (hydroxypropylcellulose) (HPC) 102 % of control | [3] 104 % of control

O=C1CN(CCCN2CCOCC2)CC(=O)N2CCCCN12
inactive: dose: 50.0 mg/kg/injection, schedule: Q01DX005 (ip), vehicle: saline 100 % of control | dose: 100.0 mg/kg/injection, schedule: Q01DX005 (ip), vehicle: saline 105 % of control | dose: 200.0 mg/kg/injection, schedule: Q01DX005 (ip), vehicle: saline 102 % of control

COC(=O)c1nc(=S)[nH]c(C(=O)OC)c1C(=O)c1ccc(Cl)c(Cl)c1
inactive: [3] 89 % of control | [4] 92 % of control | dose: 240.0 mg/kg/injection, schedule: Q01DX005 (ip), vehicle: Klucel (hydroxypropylcellulose) (HPC) 95 % of control

Cc1cccn2c(N=O)cnc12
inactive: dose: 100.0 mg/kg/injection, schedule: Q04DX003 (ip), vehicle: saline with Tween-80 98 % of control

O=C1C=CC(=O)N1c1ccc(Br)cc1Cl
inactive: dose: 1.0 mg/kg/injection, schedule: Q01DX009 (ip), vehicle: saline 104 % of control | dose: 1.8 mg/kg/injection, schedule: Q04DX003 (ip), vehicle: saline 113 % of control | dose: 2.0 mg/kg/injection, schedule: Q01DX009 (ip), vehicle: saline 109 % of control | dose: 2.6 mg/kg/injection, schedule: Q04DX003 (ip), vehicle: saline 109 % of control | dose: 4.0 mg/kg/injection, schedule: Q01DX009 (ip), vehicle: saline 113 % of control | dose: 4.0 mg/kg/injection, schedule: Q04DX003 (ip), vehicle: saline 113 % of control | dose: 6.0 mg/kg/injection, schedule: Q04DX003 (ip), vehicle: saline 118 % of control

NCC(CC(=O)O)c1ccc(Cl)cc1 (stereo not given)
inactive: [5] 94 % of control | [6] 93 % of control

COC(=O)c1cc(-c2ccccc2)[nH]c1-c1ccccc1
inactive: dose: 12.5 mg/kg/injection, schedule: Q01DX009 (ip), vehicle: saline 105 % of control | dose: 25.0 mg/kg/injection, schedule: Q01DX009 (ip), vehicle: saline 104 % of control | [7] 102 % of control

COC1CC23OC2(C1)C1C=CC3N(C(=O)OCC(Cl)(Cl)Cl)N1C(=O)OCC(Cl)(Cl)Cl (stereo not given)
inactive: [5] 102 % of control | [6] 105 % of control | [8] 102 % of control

COC(=O)c1nc(=S)[nH]c(C(=O)OC)c1C(=O)c1ccc(O)c(OC)c1
inactive: [3] 104 % of control | [4] 90 % of control

CC(C)C(Nc1ncnc2c1CCc1ccccc1-2)C(=O)O (stereo not given)
inactive: [9] 95 % of control | [10] 100 % of control

CC1(C)NC(=O)NC(=O)C1Br (stereo not given)
inactive: [11] 99 % of control | [12] 102 % of control | [13] 103 % of control

Cc1cc(=O)[nH]c(SCC(=O)c2ccccc2)n1
inactive: [5] 102 % of control | [6] 99 % of control | [8] 102 % of control

Cn1nnc2c1C(=O)c1ccccc1C2=O
inactive: [14] 106 % of control | [15] 111 % of control | dose: 200.0 mg/kg/injection, schedule: Q01DX009 (ip), vehicle: saline with Tween-80 110 % of control

Nc1nnc2cc(F)ccc2n1
inactive: [16] 104 % of control | [7] 123 % of control | [17] 108 % of control | dose: 100.0 mg/kg/injection, schedule: Q01DX009 (ip), vehicle: saline 108 % of control | [18] 98 % of control | dose: 200.0 mg/kg/injection, schedule: Q01DX009 (ip), vehicle: saline 113 % of control

CC(=O)CCNc1ccc(O)c2c1C(=O)c1ccccc1C2=O
inactive: dose: 25.0 mg/kg/injection, schedule: Q04DX002 (ip), vehicle: saline with Tween-80 100 % of control | [9] 101 % of control | [10] 94 % of control | dose: 200.0 mg/kg/injection, schedule: Q04DX002 (ip), vehicle: saline with Tween-80 100 % of control

Nc1nc2c(c(=O)[nH]1)NC(CCNc1ccc(C(=O)O)cc1)CN2 (stereo not given)
inactive: dose: 12.5 mg/kg/injection, schedule: Q01DX009 (ip), vehicle: saline with Tween-80 104 % of control | dose: 12.5 mg/kg/injection, schedule: Q04DX003 (ip), vehicle: saline with Tween-80 90 % of control | dose: 25.0 mg/kg/injection, schedule: Q01DX009 (ip), vehicle: saline with Tween-80 113 % of control | dose: 25.0 mg/kg/injection, schedule: Q04DX003 (ip), vehicle: saline with Tween-80 95 % of control | dose: 50.0 mg/kg/injection, schedule: Q04DX003 (ip), vehicle: saline with Tween-80 113 % of control

COc1cc(C(Nc2ncccn2)c2cc3c(cc2OC(C)=O)OCO3)cc(OC)c1OC (stereo not given)
inactive: dose: 60.0 mg/kg/injection, schedule: Q01DX005 (ip), vehicle: saline with Tween-80 98 % of control | dose: 120.0 mg/kg/injection, schedule: Q01DX005 (ip), vehicle: saline with Tween-80 98 % of control | dose: 240.0 mg/kg/injection, schedule: Q01DX005 (ip), vehicle: saline with Tween-80 95 % of control

C[C@@H]1CN(c2ccccc2)C[C@@H](C)OS(=O)O1
inactive: [1] 104 % of control | [2] 97 % of control | [19] 100 % of control

c1ccc2c(c1)OC1(CCSCC1)O2
inactive: dose: 100.0 mg/kg/injection, schedule: Q01DX001 (ip), vehicle: saline with Tween-80 95 % of control | dose: 200.0 mg/kg/injection, schedule: Q01DX001 (ip), vehicle: saline with Tween-80 95 % of control | dose: 400.0 mg/kg/injection, schedule: Q01DX001 (ip), vehicle: saline with Tween-80 100 % of control

CC1(C)OC2OCCC(N=[N+]=[N-])C2O1 (stereo not given)
inactive: [11] 96 % of control | [12] 96 % of control | [13] 94 % of control

COc1cc2c(cc1O)C(=O)CCC2
inactive: [16] 102 % of control | [17] 103 % of control | [18] 104 % of control

C=C1C(=O)C23C(OC(=O)CCCCCCCCCCCCCCC)C1CCC2C12COC3(O)C(O)C1C(C)(C)CCC2O (stereo not given)
inactive: dose: 3.75 mg/kg/injection, schedule: Q01DX009 (ip), vehicle: saline with Tween-80 101 % of control | dose: 7.5 mg/kg/injection, schedule: Q01DX009 (ip), vehicle: saline with Tween-80 104 % of control | dose: 15.0 mg/kg/injection, schedule: Q01DX009 (ip), vehicle: saline with Tween-80 103 % of control | dose: 30.0 mg/kg/injection, schedule: Q01DX009 (ip), vehicle: saline with Tween-80 99 % of control

Cc1cc(C)nc(NCCCCNc2nc(C)cc(C)n2)n1
inactive: [5] 92 % of control | [6] 105 % of control | [8] 100 % of control

Cn1c(=O)c2nc(-c3ccc(Cl)c(Cl)c3)cnc2n(C)c1=O
inactive: [1] 96 % of control | [2] 95 % of control | [19] 98 % of control

CCOC(=O)N1CCN(C(=O)c2nc3ccc(Cl)cc3[nH]2)CC1
inactive: [5] 108 % of control | [6] 87 % of control | [8] 93 % of control

C=CC(=O)NC1(c2ccccc2)CN2CCC1CC2 (stereo not given)
inactive: [16] 96 % of control

Cc1cc2nc3ccc(=[N+](C)C)cc-3sc2cc1N
inactive: dose: 25.0 mg/kg/injection, schedule: Q04DX003 (ip), vehicle: saline 100 % of control and 108 % of control | dose: 50.0 mg/kg/injection, schedule: Q04DX003 (ip), vehicle: saline 117 % of control and 91 % of control | dose: 100.0 mg/kg/injection, schedule: Q04DX003 (ip), vehicle: saline 109 % of control and 123 % of control

CC(C)SC(=S)Nc1cc(Cl)c(Cl)cc1Cl
inactive: [14] 98 % of control | [15] 102 % of control

O=C1/C(=C(\Cl)c2ccccc2)Cc2ccccc21
inactive: dose: 75.0 mg/kg/injection, schedule: Q01DX001 (ip), vehicle: saline sonified 100 % of control | dose: 150.0 mg/kg/injection, schedule: Q01DX001 (ip), vehicle: saline sonified 95 % of control | dose: 300.0 mg/kg/injection, schedule: Q01DX001 (ip), vehicle: saline sonified 118 % of control

CC(C)=CCn1c2ccccc2c(=O)c2ccccc21
inactive: [11] 112 % of control | [12] 105 % of control | [13] 107 % of control

— PubChem BioAssay AID330 (DTP/NCI, 2004)
